The values that follow come from paper PMC11013284, “Chemoselective Synthesis and Anti-Kinetoplastidal Properties of 2,6-Diaryl-4H-tetrahydro-thiopyran-4-one S-Oxides: Their Interplay in a Cascade of Redox Reactions from Diarylideneacetones” (Molecules, 2024).

SMILES strings stand for the structures. Read-outs that look alike come from different tables or passages of the source.

In one series the test system is murine macrophages. Nature of the series: Qualitative toxicity toward mouse macrophages. The settings on record: concentration at which toxicity was observed; 64, 16 and 4 µM tested. As for the experimental part:
(§1) The cytotoxicity of compounds was evaluated toward human diploid embryonic lung fibroblast hMRC-5SV2 cells, derived from fetal lung tissue and first described in 1970. hMRC-5SV2 cells were cultured in 96-well plates with five concentrations of the compound (64, 16, 4, 1, and 0.25 μM). After 3 days of incubation, the cell viability was assessed fluorimetrically after the addition of resazurin, and fluorescence was measured (λex = 550 nm, λem = 590 nm). The results were expressed as a percentage reduction in cell growth/viability compared to control wells, and a 50% cytotoxic concentration (CC50) was calculated. The reference cytotoxic drugs were tamoxifen or ivermectin. Additionally, toxicity toward mouse macrophages was qualitatively observed. Three concentrations were included (64, 16, and 4 µM), and the range of toxicity was ranked from the least toxic to the most toxic compound.

Series [1] deals with Trypanosoma brucei brucei trypomastigotes, suramin-sensitive strain (Squib 427). Nature of the series: T. b. brucei growth/viability assay (resazurin). Type of series: cell-based. The settings on record: for IC50: 3 days; for anti-trypanosomal activity (IC50): Trypanosoma (T. cruzi and T. b. brucei). As for the experimental part:
After 3 days, parasite growth was assessed fluorimetrically following the addition of resazurin. After 24 h at 37 °C, fluorescence was measured (λex = 550 nm, λem = 590 nm). The results were expressed as a percentage reduction in parasite growth/viability compared to control wells, and a 50% inhibitory concentration (IC50) was calculated.

Series [2] deals with WT LV9 L. donovani intramacrophage amastigotes. Nature of the series: L. donovani intramacrophage amastigote assay. Format: cell-based, Leishmania donovani. The settings on record: WT LV9, ± SD in Tables S5/S6, read-out: IC50 L. donovani intramacrophage amastigotes.
A further series in a line: in vitro. The settings on record: human, CC50 hMRC-5 (cytotoxicity). As for the experimental part: as §1
The subject of series [3] is L. infantum (MHOM/MA(BE)/67) amastigotes in primary peritoneal mouse macrophages. Put plainly: L. infantum intramacrophage amastigote assay (microscopic burden). The settings on record: 5 days, mouse macrophages as host. Format: cell-based, Leishmania infantum. As for the experimental part:
L. infantum (MHOM/MA(BE)/67 strain) amastigote were incubated for 5 days in 96-well plates with five concentrations of compound (64, 16, 4, 1, and 0.25 μM). Primary peritoneal mouse macrophages were used as host cells. Parasite burdens (i.e., the number of amastigotes per macrophage) were microscopically assessed. The results were expressed as a percentage reduction in parasite burden compared to untreated control wells, and an IC50 was calculated.

Series [4] deals with Trypanosoma cruzi (Tulahuen CL2 β-galactosidase) amastigotes in hMRC-5SV2 cells. Nature of the series: T. cruzi intracellular amastigote assay (β-galactosidase/CPRG). Format: cell-based. The settings on record: intracellular amastigotes, 7 days; for IC50: read-out: IC50 T. cruzi intramacrophage amastigotes (converted). As for the experimental part: A nifurtimox-sensitive strain (Tulahuen CL2 β-galactosidase) in human lung fibroblast hMRC-5SV2 cells was incubated for 7 days in 96-well plates with five concentrations of compound (64, 16, 4, 1, and 0.25 μM). The parasitic burden was evaluated through the activity of the enzyme β-galactosidase on a specific chlorophenol red ß-D-galactopyranoside (CPRG) substrate. Live parasites converted the yellow-orange CPRG substrate into the red chromophore chlorophenol red, yielding a dark-red solution, which could be quantitatively measured at 540 nm after 4 h of incubation at 37 °C. The results were expressed as a percentage reduction in parasite growth/viability compared to control wells, and an IC50 was calculated.

Series [5] concerns human diploid embryonic lung fibroblast hMRC-5SV2 cells. Nature of the series: in vitro. As for the experimental part:
as §1

Series [6] in a line: Solubility observations (crystals in assay, insolubility in solvents). Type of series: physicochemical. The settings on record: noted in L. donovani assay, Table S5.
Where [7] appears, read: Leishmania infantum, Macrophage, 120 h.
The mark [8] stands for this setting: Trypanosoma cruzi, TULAHUEN, 168 h.
[9] abbreviates: bracketed value after the intramacrophage IC50 (Table S5), Table S6.

By IC50 is commonly meant the concentration needed to halve the response being measured. Broadly, the CC50 is the concentration giving 50% cytotoxicity. A high value points to better tolerance by the cells. On to `O=C1CC(c2ccccn2)[S+]([O-])C(c2ccccn2)C1` (mixture of isomers) [3′w, (syn/anti)-cis-2,6-Di-(pyridin-2-yl)-4H-tetra-hydrothiopyran-4-one 1-oxide, as diastereoisomeric mixture], for which the “Toxicity (T) observed toward murine macrophages” value (shortened to “Toxicity”) in the series on murine macrophages is on record as “T3 (T3 = 4)”. Moreover, the IC50 in series [1] (Trypanosoma brucei, 72 h) was 0.1 µM; in series [2] (Leishmania donovani) it was 2.5 µM; in [3] (setting [7]), 2 µM; in [4] (setting [8]) it was 0.5 µM. This compound displayed a CC50 at 3 days in the series “in vitro” of 8.1 µM.
For `O=C1CC(c2c(Cl)cccc2Cl)SC(c2c(Cl)cccc2Cl)C1` (racemic) [2h], the half-maximal inhibitory concentration (IC50) was more than 64 µM in [1], 2 µM in series [3] and more than 64 µM in [4]. Further, the CC50 in series [5] is more than 64 µM. The “presence of crystals, concentration range” value in series [6] fell in the range of 12.5 to 200 µM.
`COc1ccc(C2CC(=O)CC(c3ccc(OC)c(OC)c3)S2)cc1OC` (racemic) [2j]: the “observed macrophage death / lysis observed at” value in the series with macrophages (setting [9]) was more than 150 µM. Also, the half-inhibitory concentration (IC50) in series [1] is 8.1 µM; in series [2], 19.3 ± 7.1 µM; in series [3], 32.5 µM; in series [4], 7.3 µM. In addition, the half-maximal cytotoxic concentration (CC50) in [5] was found to be 9.3 µM.
Regarding `O=C1CC(c2ccc(C(F)(F)F)cc2)SC(c2ccc(C(F)(F)F)cc2)C1` (racemic) [2r], the “observed macrophage death / lysis observed at” value with macrophages (setting [9]) came to 200 µM. Besides, the IC50 is 0.5 µM in series [1], 68.6 ± 41.2 µM in series [2], 32.5 µM in series [3] and 2.5 µM in series [4]. In addition, in series [5], the CC50 stood at 10.2 µM.
On to `N#Cc1ccc(C2CC(=O)CC(c3ccc(C#N)cc3)S2)cc1` (racemic) [2t], for which the “observed macrophage death / lysis observed at” value in the series with macrophages (setting [9]) was more than 100 µM. Moreover, the IC50 was 1.2 µM in series [1], more than 50 µM in series [2], more than 64 µM in series [3] and 42.5 µM in series [4]. Moreover, in series [5], the cytotoxic concentration (CC50) was more than 64 µM.
As for `CC(=O)Nc1ccc(C2CC(=O)CC(c3ccc(NC(C)=O)cc3)S2)cc1` (racemic) [2v], the “observed macrophage death / lysis observed at” value in the series with macrophages (setting [9]) is more than 100 µM. For the same compound, the IC50 in series [1] is more than 64 µM; in series [2], more than 50 µM; in series [3], more than 64 µM; in series [4], more than 64 µM. The same compound came in with a 50% cytotoxic concentration (CC50) in [5] of more than 64 µM.
With `O=C1CC(c2ccco2)SC(c2ccco2)C1` (racemic) [2z], in the series with macrophages (setting [9]), the “observed macrophage death / lysis observed at” value is more than 150 µM. Besides, the IC50 in series [1] was more than 64 µM; in [2], 3.2 ± 0.8 µM; in series [3] it was more than 64 µM; in [4] it was more than 64 µM. Also, the CC50 in [5] was more than 64 µM.
As for `O=C1CC(c2ccccn2)S(=O)(=O)C(c2ccccn2)C1` (racemic) [4w, (±)-trans-2,6-Di-(pyridin-2-yl)-4H-tetrahydrothiopyran-4-one 1,1-dioxide], the “Toxicity” value in the series with murine macrophages is on record as “T3 (T3 = 4)”. Further, the IC50 in [1] is 0.5 µM; in [2] it was 5 µM; in [3] (setting [7]), 2 µM; in series [4] (setting [8]), 0.4 µM. In addition, in series [1], the “anti-trypanosomal activity (IC50)” value is on record as “high nanomolar range”. This compound returned a 50% cytotoxic concentration (CC50) at 3 days in the series “in vitro” of 7.9 µM. In addition, the “IC50 L. infantum intramacrophage amastigotes” value in [3] is listed as “excellent potency”.
Turning to `Cc1ccccc1/C=C/C(=O)/C=C/c1ccccc1C` [1b], the “observed macrophage death / lysis observed at” value in the series with macrophages (setting [9]) is recorded as more than 37.5 µM. Besides, the IC50 in series [1] is more than 64 µM; in [2], 11.9 ± 1.1 µM; in [3] it was 8.1 µM; in [4], 51.7 µM. For the same compound, in series [5], the CC50 was more than 64 µM.
`COc1ccc(/C=C/C(=O)/C=C/c2ccc(OC)c(OC)c2)cc1OC` [1j]: the “Toxicity” value in the series on murine macrophages is listed as “T1 (T1 = 64)”. The IC50 in series [1] (Trypanosoma brucei, 72 h) is 2.1 µM; in series [3] (setting [7]) it was 30 µM; in series [4] (setting [8]) it was 2.1 µM. Further, in the series “in vitro”, half-maximal cytotoxicity (CC50 at 3 days) was put at 6.9 µM.
Consider `COc1ccc(OC)c(/C=C/C(=O)/C=C/c2cc(OC)ccc2OC)c1` [1m], for which the “Toxicity” value in the series on murine macrophages is on record as “T1 (T1 = 64)”. Also, the concentration for half-maximal inhibition (IC50) in series [1] (Trypanosoma brucei, 72 h) is 0.8 µM; in series [3] (setting [7]), 10.4 µM; in [4] (setting [8]), 1.1 µM. It took 1 µM to reach half-maximal cytotoxicity in the series “in vitro” (CC50 at 3 days).
Taken in the same sequence, the figures for `COc1cc(Br)c(OC)c(/C=C/C(=O)/C=C/c2cc(OC)cc(Br)c2OC)c1` [1q] were “T1 (T1 = 64)”, 0.9 µM, 10.4 µM, 0.9 µM and 0.8 µM.
Take `CC(=O)Nc1ccc(/C=C/C(=O)/C=C/c2ccc(NC(C)=O)cc2)cc1` [1v]: in the series with macrophages (setting [9]), the “observed macrophage death / lysis observed at” value is reported as 100 µM. The IC50 in series [1] is 0.5 µM; in [2] it was more than 50 µM; in series [3], 8.1 µM; in series [4], 10.2 µM. Half-maximal cytotoxicity in [5] (CC50) was put at 34 µM.
Turning to `O=C(/C=C/c1ccccn1)/C=C/c1ccccn1` [1w], the “Toxicity” value with murine macrophages was “T3 (T3 = 4)”. Also, the IC50 in series [1] (Trypanosoma brucei, 72 h) was 0.03 µM; in [3] (setting [7]) it was 0.4 µM; in series [4] (setting [8]), 0.3 µM. In the series “in vitro”, this compound registered a CC50 at 3 days of 1.9 µM.
For the compound `O=C(/C=C/c1ccco1)/C=C/c1ccco1` [1z], the “Toxicity” value with murine macrophages is “T1 (T1 = 64)”. The “observed macrophage death / lysis observed at” value in the series on macrophages was more than 50 µM. Also, the IC50 was 7.6 µM in [1] (Trypanosoma brucei, 72 h); 14 ± 2.6 µM in series [2] (Leishmania donovani); 32.5 µM in series [3] (setting [7]); 39.9 µM in series [4] (setting [8]). The CC50 at 3 days in the series “in vitro” was more than 64 µM.
On to `Cc1ccc(/C=C/C(=O)/C=C/c2ccc(C)o2)o1` [1za], for which, in the series on murine macrophages, the “Toxicity” value is “T2 (T2 = 16)”. In addition, the concentration for half-maximal inhibition (IC50) was 8.2 µM in [1] (Trypanosoma brucei, 72 h); 8.1 µM in [3] (setting [7]); 2.2 µM in [4] (setting [8]). In “in vitro”, this compound gave a CC50 at 3 days of 5.4 µM.
Take `Cc1ccc(/C=C/C(=O)/C=C/c2ccccc2)cc1` [1’a]: the IC50 in series [1] is 0.5 µM; in [3], 32.5 µM; in [4] it was 2.6 µM. In [5], this compound gave a half-maximal cytotoxic concentration (CC50) of 47 µM. The “presence of crystals, concentration range” value in series [6] was in the range of 3.1 to 200 µM.
Take `O=C1CC(c2ccccn2)[S+]([O-])C(c2ccccn2)C1` (stereo not drawn) [3w, (±)-trans-2,6-Di-(pyridin-2-yl)-4H-tetrahydrothiopyran-4-one 1-oxide]: in the series with murine macrophages, the “Toxicity” value is recorded as “T3 (T3 = 4)”. In addition, the IC50 is 0.1 µM in [1] (Trypanosoma brucei, 72 h); 25 µM in [2] (Leishmania donovani); 2 µM in [3] (setting [7]); 0.8 µM in series [4] (setting [8]). The cytotoxic concentration (CC50) at 3 days in “in vitro” stood at 8 µM.
For the compound `COc1ccc(C2CC(=O)CC(c3ccc(OC)cc3)[S+]2[O-])cc1` (stereo not drawn) [3″d, (anti)- and (syn)-cis-2,6-Di-(p-anisyl)-4H-tetrahydro-thiopyran-4-one 1-oxides], the “Toxicity” value in the series with murine macrophages was “T1 (T1 = 64)”. Further, the IC50 was 2.4 µM in series [1], 35 µM in [2], 27.3 µM in [3] and 8.5 µM in series [4]. This compound registered a cytotoxic concentration (CC50) in [5] (human, 3 days) of 32 µM. For the same compound, the “IC50 L. infantum intramacrophage amastigotes” value in series [3] was “moderate potency”. In addition, the “IC50 T. cruzi intramacrophage amastigotes” value in [4] is given as “moderate potency”.
Take `O=C1CC(c2ccccn2)S(=O)(=O)C(c2ccccn2)C1` (stereo not drawn) [4′w, cis-2,6-Di-(pyridin-2-yl)-4H-tetrahydrothiopyran-4-one 1,1-dioxide]: in the series with murine macrophages, the “Toxicity” value is reported as “T3 (T3 = 4)”. For the same compound, the 50% inhibitory concentration (IC50) in [1] was 0.1 µM; in series [2], 1.6 µM; in [3], 2 µM; in [4], 0.4 µM. Also, the “anti-trypanosomal activity (IC50)” value in series [1] is “high nanomolar range”. The CC50 in series [5] (human, 3 days) came to 7.5 µM. Also, the “IC50 L. infantum intramacrophage amastigotes” value in series [3] is listed as “excellent potency”.
